Assay results published in paper PMC10746543, “Design principles for cyclin K molecular glue degraders” (Nature Chemical Biology, 2023).
Values joined by “and” are separate entries in the source; they are usually repeats but may differ in a detail not shown here. Equal entries are not always repeated. Where two headings read alike, the source gives them in different places.

Key:
[1] = tested on: cyclin K–eGFP degradation reporter; experiment: Cyclin K reporter stability analysis (dual-color cyclin K–eGFP reporter); type: cell-based, human; settings: Supplementary Table 2; HEK293T cycK-eGFP reporter, 5 h; read-out: Cellular assays DC50
Procedure, shortened: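 Readout was the eGFP-to-mCherry geometric-mean ratio by flow cytometry, normalized to three DMSO controls, after 5 h drug exposure. Cells used were HEK293T–Cas9 expressing the dual-colour cyclin K–eGFP degradation reporter.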

HEK293T cells = experiment: Drug sensitivity assay (CellTiter-Glo viability) with or without MLN4924 pretreatment; type: cell-based, human; settings: Supplementary Table 2
Procedure, shortened: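 First, cells (HEK293T–Cas9, 0.15 × 10^6 ml^−1) are exposed to DMSO or 100 nM MLN4924. Next, drugs follow at 2 h. Finally, CellTiter-Glo is read at day 3 and normalised to DMSO.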

CDK12–cyclin K = CDK12–cyclin K (Homo sapiens, UniProt Q9NYV4); experiment: Lanthascreen kinase binding assay, CDK12; settings: for Lanthascreen raw signal, sheet CDK12: duplicates
Chain of CDK12–cyclin K (Q9NYV4 713-1052): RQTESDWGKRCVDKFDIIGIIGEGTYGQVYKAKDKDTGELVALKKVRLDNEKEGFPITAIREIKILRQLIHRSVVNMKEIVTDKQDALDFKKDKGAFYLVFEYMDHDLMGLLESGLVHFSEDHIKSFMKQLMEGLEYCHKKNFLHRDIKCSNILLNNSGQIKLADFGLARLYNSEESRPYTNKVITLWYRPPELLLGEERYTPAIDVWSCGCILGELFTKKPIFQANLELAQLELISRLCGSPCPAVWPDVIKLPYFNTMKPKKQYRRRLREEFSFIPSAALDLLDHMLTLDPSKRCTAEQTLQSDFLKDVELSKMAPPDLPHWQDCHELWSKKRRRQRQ
Chain of CDK12–cyclin K (O75909 1-267 partner limits assumed): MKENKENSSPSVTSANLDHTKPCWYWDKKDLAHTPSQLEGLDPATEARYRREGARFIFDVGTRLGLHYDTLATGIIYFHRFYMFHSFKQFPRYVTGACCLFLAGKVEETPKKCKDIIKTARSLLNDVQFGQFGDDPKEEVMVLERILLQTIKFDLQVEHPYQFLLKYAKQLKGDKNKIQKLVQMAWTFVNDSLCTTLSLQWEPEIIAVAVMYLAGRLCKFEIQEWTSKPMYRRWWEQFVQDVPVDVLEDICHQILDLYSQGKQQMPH
Procedure: (§1) Lanthascreen experiments were performed using commercially available reagents (Thermo Fisher) and according to the manufacturer’s instructions.

CDK9–cyclin T = biological target: T1, CDK9–cyclin T (Homo sapiens, UniProt P50750); experiment: Lanthascreen kinase binding assay, CDK9; settings: for Lanthascreen TR-FRET signal (raw ratio), sheet CDK9: duplicates
T1 construct: purchased Thermo Fisher
T1 sequence (P50750 whole entry): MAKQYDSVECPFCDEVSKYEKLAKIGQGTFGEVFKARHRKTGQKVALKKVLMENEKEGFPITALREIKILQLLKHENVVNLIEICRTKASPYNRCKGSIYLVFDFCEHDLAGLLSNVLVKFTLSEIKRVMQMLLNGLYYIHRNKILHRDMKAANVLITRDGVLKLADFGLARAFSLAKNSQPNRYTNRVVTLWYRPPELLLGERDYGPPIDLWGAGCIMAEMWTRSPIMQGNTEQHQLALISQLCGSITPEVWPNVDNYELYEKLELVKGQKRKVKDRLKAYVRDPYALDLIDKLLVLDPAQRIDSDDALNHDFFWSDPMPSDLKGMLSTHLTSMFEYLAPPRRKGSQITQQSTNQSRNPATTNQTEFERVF
T1 sequence (O60563 whole entry partner): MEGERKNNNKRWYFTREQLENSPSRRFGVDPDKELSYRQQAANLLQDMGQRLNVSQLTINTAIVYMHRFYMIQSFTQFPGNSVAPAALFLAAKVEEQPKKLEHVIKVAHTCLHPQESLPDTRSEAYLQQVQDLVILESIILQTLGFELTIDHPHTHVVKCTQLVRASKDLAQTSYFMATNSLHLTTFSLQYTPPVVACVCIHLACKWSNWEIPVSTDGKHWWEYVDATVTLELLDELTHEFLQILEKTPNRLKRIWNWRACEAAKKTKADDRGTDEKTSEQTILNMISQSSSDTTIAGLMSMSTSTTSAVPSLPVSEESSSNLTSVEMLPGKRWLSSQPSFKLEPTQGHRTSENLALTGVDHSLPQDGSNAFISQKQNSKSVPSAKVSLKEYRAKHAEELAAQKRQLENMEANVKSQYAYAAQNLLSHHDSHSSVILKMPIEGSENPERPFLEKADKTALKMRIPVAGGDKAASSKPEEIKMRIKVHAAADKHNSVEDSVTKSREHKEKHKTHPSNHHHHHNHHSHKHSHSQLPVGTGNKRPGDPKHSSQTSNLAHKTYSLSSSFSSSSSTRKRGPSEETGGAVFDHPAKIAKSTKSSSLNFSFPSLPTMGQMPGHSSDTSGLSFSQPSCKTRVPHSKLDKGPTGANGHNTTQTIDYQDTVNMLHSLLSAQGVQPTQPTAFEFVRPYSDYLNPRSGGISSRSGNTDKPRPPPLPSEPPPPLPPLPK
Procedure: as §1

CDK2–cyclin A = biological target: T2, CDK2–cyclin A (Homo sapiens, UniProt P24941); experiment: Lanthascreen kinase binding assay, CDK2; settings: for Lanthascreen signal, sheet CDK2: raw replicates
T2 construct: purchased Thermo Fisher
Procedure: as §1

DC50 [1]: > 10 µM | IC50 (CDK12–cyclin K; Supplementary Table 2, read-out: Lanthascreen IC50 [nM] CDK12): 2670 nM | Lanthascreen raw signal, sheet CDK12 (CDK12–cyclin K; compound 0.038147 nM, series r13): 0.01104 and 0.01163 | Lanthascreen raw signal, sheet CDK12 (CDK12–cyclin K; compound 0.152588 nM, series r13): 0.01112 and 0.01168 | Lanthascreen raw signal, sheet CDK12 (CDK12–cyclin K; compound 0.610352 nM, series r13): 0.01247 and 0.01238 | Lanthascreen raw signal, sheet CDK12 (CDK12–cyclin K; compound 1.02544 nM, series r1): 0.009603 and 0.009325 | Lanthascreen raw signal, sheet CDK12 (CDK12–cyclin K; compound 3.15521 nM, series r1): 0.009514 and 0.008733 | Lanthascreen raw signal, sheet CDK12 (CDK12–cyclin K; compound 9.46563 nM, series r1): 0.008364 and 0.009802 | Lanthascreen raw signal, sheet CDK12 (CDK12–cyclin K; compound 9.76563 nM, series r13): 0.01196 and 0.01162 | Lanthascreen raw signal, sheet CDK12 (CDK12–cyclin K; compound 31.5521 nM, series r1): 0.009806 and 0.008597 | Lanthascreen raw signal, sheet CDK12 (CDK12–cyclin K; compound 39.0625 nM, series r13): 0.01144 and 0.01131 | Lanthascreen raw signal, sheet CDK12 (CDK12–cyclin K; compound 99.3891 nM, series r1): 0.01036 and 0.01052 | Lanthascreen raw signal, sheet CDK12 (CDK12–cyclin K; compound 156.25 nM, series r13): 0.01124 and 0.01129 | Lanthascreen raw signal, sheet CDK12 (CDK12–cyclin K; compound 315.521 nM, series r1): 0.008735 and 0.009176 | Lanthascreen raw signal, sheet CDK12 (CDK12–cyclin K; compound 625 nM, series r13): 0.01063 and 0.01139 | Lanthascreen raw signal, sheet CDK12 (CDK12–cyclin K; compound 2500 nM, series r13): 0.009917 and 0.009154 | Lanthascreen raw signal, sheet CDK12 (CDK12–cyclin K; compound 3155.21 nM, series r1): 0.007612 and 0.007481 | Lanthascreen raw signal, sheet CDK12 (CDK12–cyclin K; compound 10000 nM, series r13): 0.007835 and 0.008247 | Lanthascreen raw signal, sheet CDK12 (CDK12–cyclin K; compound 10002 nM, series r1): 0.006896 and 0.007143 | IC50 (CDK9–cyclin T; Supplementary Table 2, read-out: Lanthascreen IC50 [nM] CDK9): 3020 nM | Lanthascreen TR-FRET signal (raw ratio), sheet CDK9 (CDK9–cyclin T; compound 0.038147 nM, second titration set (r13)): 0.01294 and 0.01365 | Lanthascreen TR-FRET signal (raw ratio), sheet CDK9 (CDK9–cyclin T; compound 0.152588 nM, second titration set (r13)): 0.0141 and 0.01339 | Lanthascreen TR-FRET signal (raw ratio), sheet CDK9 (CDK9–cyclin T; compound 0.610352 nM, second titration set (r13)): 0.0143 and 0.01462 | Lanthascreen TR-FRET signal (raw ratio), sheet CDK9 (CDK9–cyclin T; compound 1.02544 nM, first titration set (r1)): 0.01545 and 0.0134 | Lanthascreen TR-FRET signal (raw ratio), sheet CDK9 (CDK9–cyclin T; compound 3.15521 nM, first titration set (r1)): 0.01353 and 0.01504 | Lanthascreen TR-FRET signal (raw ratio), sheet CDK9 (CDK9–cyclin T; compound 9.46563 nM, first titration set (r1)): 0.01222 and 0.01325 | Lanthascreen TR-FRET signal (raw ratio), sheet CDK9 (CDK9–cyclin T; compound 9.76563 nM, second titration set (r13)): 0.01396 and 0.01385 | Lanthascreen TR-FRET signal (raw ratio), sheet CDK9 (CDK9–cyclin T; compound 31.5521 nM, first titration set (r1)): 0.0135 and 0.01525 | Lanthascreen TR-FRET signal (raw ratio), sheet CDK9 (CDK9–cyclin T; compound 39.0625 nM, second titration set (r13)): 0.0129 and 0.01348 | Lanthascreen TR-FRET signal (raw ratio), sheet CDK9 (CDK9–cyclin T; compound 99.3891 nM, first titration set (r1)): 0.01289 and 0.01231 | Lanthascreen TR-FRET signal (raw ratio), sheet CDK9 (CDK9–cyclin T; compound 156.25 nM, second titration set (r13)): 0.01372 and 0.01352 | Lanthascreen TR-FRET signal (raw ratio), sheet CDK9 (CDK9–cyclin T; compound 315.521 nM, first titration set (r1)): 0.01199 and 0.01288 | Lanthascreen TR-FRET signal (raw ratio), sheet CDK9 (CDK9–cyclin T; compound 625 nM, second titration set (r13)): 0.01085 and 0.01132 | Lanthascreen TR-FRET signal (raw ratio), sheet CDK9 (CDK9–cyclin T; compound 2500 nM, second titration set (r13)): 0.0085 and 0.007435 | Lanthascreen TR-FRET signal (raw ratio), sheet CDK9 (CDK9–cyclin T; compound 3155.21 nM, first titration set (r1)): 0.006467 and 0.007084 | Lanthascreen TR-FRET signal (raw ratio), sheet CDK9 (CDK9–cyclin T; compound 10000 nM, second titration set (r13)): 0.00463 and 0.004475 | Lanthascreen TR-FRET signal (raw ratio), sheet CDK9 (CDK9–cyclin T; compound 10002 nM, first titration set (r1)): 0.0026 and 0.00423 | Lanthascreen signal, sheet CDK2 (CDK2–cyclin A; Compound 0.038147 nM, experiment r13-r23): 0.01285 and 0.01289 | Lanthascreen signal, sheet CDK2 (CDK2–cyclin A; Compound 0.152588 nM, experiment r13-r23): 0.01318 and 0.01321 | Lanthascreen signal, sheet CDK2 (CDK2–cyclin A; Compound 0.610352 nM, experiment r13-r23): 0.01258 and 0.01278 | Lanthascreen signal, sheet CDK2 (CDK2–cyclin A; Compound 1.02544 nM, experiment r1-r11): 0.008366 and 0.009193 | Lanthascreen signal, sheet CDK2 (CDK2–cyclin A; Compound 3.15521 nM, experiment r1-r11): 0.01197 and 0.009076 | Lanthascreen signal, sheet CDK2 (CDK2–cyclin A; Compound 9.46563 nM, experiment r1-r11): 0.01142 and 0.01118 | Lanthascreen signal, sheet CDK2 (CDK2–cyclin A; Compound 9.76563 nM, experiment r13-r23): 0.01261 and 0.01356 | Lanthascreen signal, sheet CDK2 (CDK2–cyclin A; Compound 31.5521 nM, experiment r1-r11): 0.01118 and 0.009287 | Lanthascreen signal, sheet CDK2 (CDK2–cyclin A; Compound 39.0625 nM, experiment r13-r23): 0.01377 and 0.01313 | Lanthascreen signal, sheet CDK2 (CDK2–cyclin A; Compound 99.3891 nM, experiment r1-r11): 0.01102 and 0.008633 | Lanthascreen signal, sheet CDK2 (CDK2–cyclin A; Compound 156.25 nM, experiment r13-r23): 0.01301 and 0.01263 | Lanthascreen signal, sheet CDK2 (CDK2–cyclin A; Compound 315.521 nM, experiment r1-r11): 0.01039 and 0.01098 | Lanthascreen signal, sheet CDK2 (CDK2–cyclin A; Compound 625 nM, experiment r13-r23): 0.01331 and 0.01224 | Lanthascreen signal, sheet CDK2 (CDK2–cyclin A; Compound 2500 nM, experiment r13-r23): 0.0123 and 0.01244 | Lanthascreen signal, sheet CDK2 (CDK2–cyclin A; Compound 3155.21 nM, experiment r1-r11): 0.0101 and 0.009174 | Lanthascreen signal, sheet CDK2 (CDK2–cyclin A; Compound 10000 nM, experiment r13-r23): 0.01049 and 0.00891 | Lanthascreen signal, sheet CDK2 (CDK2–cyclin A; Compound 10002 nM, experiment r1-r11): 0.008182 and 0.007001 | IC50 (CDK2–cyclin A; Lanthascreen, average, Extended Data Fig. 8, read-out: CDK2 IC50): > 10000 nM | IC50 (CDK2–cyclin A; Supplementary Table 2, read-out: Lanthascreen IC50 [nM] CDK2): > 10000 nM
Compound: O=C(CSc1nc2ccccc2[nH]1)Nc1ccc(Cl)cn1 [dCeMM3]
EC50 (HEK293T cells; Homo sapiens, HEK-293T, HEK293T viability, 72 h, compound alone, read-out: Cellular assays EC50): > 10 µM | Toxicity rescue (HEK293T cells; MLN4924-mediated cytotoxicity rescue, 10 µM used where n.d.): 0%
